Laboratory results published in ChEMBL document CHEMBL3885881, “DrugMatrix”.

Species on record: Rattus norvegicus
Assay: DrugMatrix - Regimen: Daily Repeat
Type: toxicity, organism-based, Sprague-Dawley
Design: regimen Daily Repeat, gender Male, age 6-8 weeks
Details: in vivo, po, route oral GAVAGE, vehicle 100 % WATER; for ABSOLUTE BASOPHIL / ABSOLUTE EOSINOPHIL / ABSOLUTE LYMPHOCYTE / ABSOLUTE MONOCYTE / ABSOLUTE SEGMENTED NEUTROPHIL / BASOPHIL / EOSINOPHIL / ERYTHROCYTE COUNT / HEMATOCRIT / HEMOGLOBIN / LEUKOCYTE COUNT / LYMPHOCYTE / MEAN CORPUSCULAR HEMOGLOBIN / MEAN CORPUSCULAR HEMOGLOBIN CONCENTRATION / MEAN CORPUSCULAR VOLUME / MONOCYTE / NEUTROPHIL / NUCLEATED RED BLOOD CELLS / PLATELET COUNT: tissue Blood; for ALANINE AMINOTRANSFERASE / ALBUMIN / ALKALINE PHOSPHATASE / ASPARTATE AMINOTRANSFERASE / BLOOD UREA NITROGEN / CARBON DIOXIDE / CHLORIDE / CHOLESTEROL / CREATINE PHOSPHOKINASE / CREATININE / GLUCOSE / LACTATE DEHYDROGENASE / LIPASE / PHOSPHORUS / POTASSIUM / SODIUM / TOTAL BILIRUBIN / TOTAL PROTEIN / URIC ACID: tissue Plasma
[1] = 0 mg/kg, 72 h, dose level Control, time 3 day
[2] = 0 mg/kg, 120 h, dose level Control, time 5 day
[3] = 2200 mg/kg, 72 h, dose level High, time 3 day
[4] = 2200 mg/kg, 120 h, dose level High, time 5 day

O.O.O.O.O.O.[Cl-].[Cl-].[Sr+2] [STRONTIUM CHLORIDE HEXAHYDRATE]
ABSOLUTE BASOPHIL [1]: 0 CELLS/uL | ABSOLUTE EOSINOPHIL [1]: 151.33 CELLS/uL | ABSOLUTE LYMPHOCYTE [1]: 10599.5 CELLS/uL | ABSOLUTE MONOCYTE [1]: 109.5 CELLS/uL | ABSOLUTE SEGMENTED NEUTROPHIL [1]: 1139.67 CELLS/uL | BASOPHIL [1]: 0% | EOSINOPHIL [1]: 0.83% | ERYTHROCYTE COUNT [1]: 5.54 x10E6/uL | HEMATOCRIT [1]: 35.35% | HEMOGLOBIN [1]: 13.22 G/DL | LEUKOCYTE COUNT [1]: 12 x10E3/uL | LYMPHOCYTE [1]: 89% | MEAN CORPUSCULAR HEMOGLOBIN [1]: 23.88 pg | MEAN CORPUSCULAR HEMOGLOBIN CONCENTRATION [1]: 37.4 G/DL | MEAN CORPUSCULAR VOLUME [1]: 63.85 fL | MONOCYTE [1]: 1% | NEUTROPHIL [1]: 9.17% | NUCLEATED RED BLOOD CELLS [1]: 0 /100WBC | PLATELET COUNT [1]: 1333.33 x10E3/uL | ALANINE AMINOTRANSFERASE [1]: 53.17 u/L | ALBUMIN [1]: 4.32 G/DL | ALKALINE PHOSPHATASE [1]: 404.33 u/L | ASPARTATE AMINOTRANSFERASE [1]: 83.17 u/L | BLOOD UREA NITROGEN [1]: 15.67 mg/dL | CARBON DIOXIDE [1]: 27.33 mmol/L | CHLORIDE [1]: 101.83 MEQ/L | CHOLESTEROL [1]: 68.67 mg/dL | CREATINE PHOSPHOKINASE [1]: 276.17 u/L | CREATININE [1]: 0.18 mg/dL | GLUCOSE [1]: 163.5 mg/dL | LACTATE DEHYDROGENASE [1]: 144.67 u/L | LIPASE [1]: 8.83 u/L | PHOSPHORUS [1]: 11.72 mg/dL | POTASSIUM [1]: 5.99 MEQ/L | SODIUM [1]: 143.57 MEQ/L | TOTAL BILIRUBIN [1]: 0.2 mg/dL | TOTAL PROTEIN [1]: 6.1 G/DL | URIC ACID [1]: 1.38 mg/dL | ABSOLUTE BASOPHIL [2]: 0 CELLS/uL | ABSOLUTE EOSINOPHIL [2]: 248.67 CELLS/uL | ABSOLUTE LYMPHOCYTE [2]: 12977.83 CELLS/uL | ABSOLUTE MONOCYTE [2]: 19.67 CELLS/uL | ABSOLUTE SEGMENTED NEUTROPHIL [2]: 1137.17 CELLS/uL | BASOPHIL [2]: 0% | EOSINOPHIL [2]: 1.67% | ERYTHROCYTE COUNT [2]: 5.82 x10E6/uL | HEMATOCRIT [2]: 36.35% | HEMOGLOBIN [2]: 13.58 G/DL | LEUKOCYTE COUNT [2]: 14.38 x10E3/uL | LYMPHOCYTE [2]: 90.5% | MEAN CORPUSCULAR HEMOGLOBIN [2]: 23.32 pg | MEAN CORPUSCULAR HEMOGLOBIN CONCENTRATION [2]: 37.42 G/DL | MEAN CORPUSCULAR VOLUME [2]: 62.42 fL | MONOCYTE [2]: 0.17% | NEUTROPHIL [2]: 7.67% | NUCLEATED RED BLOOD CELLS [2]: 0 /100WBC | PLATELET COUNT [2]: 1337.67 x10E3/uL | ALANINE AMINOTRANSFERASE [2]: 48.5 u/L | ALBUMIN [2]: 4.32 G/DL | ALKALINE PHOSPHATASE [2]: 354.33 u/L | ASPARTATE AMINOTRANSFERASE [2]: 80 u/L | BLOOD UREA NITROGEN [2]: 16 mg/dL | CARBON DIOXIDE [2]: 27.33 mmol/L | CHLORIDE [2]: 100.33 MEQ/L | CHOLESTEROL [2]: 68 mg/dL | CREATINE PHOSPHOKINASE [2]: 325.17 u/L | CREATININE [2]: 0.23 mg/dL | GLUCOSE [2]: 172 mg/dL | LACTATE DEHYDROGENASE [2]: 254.83 u/L | LIPASE [2]: 8.33 u/L | PHOSPHORUS [2]: 12.17 mg/dL | POTASSIUM [2]: 6.28 MEQ/L | SODIUM [2]: 143.57 MEQ/L | TOTAL BILIRUBIN [2]: 0.18 mg/dL | TOTAL PROTEIN [2]: 6.12 G/DL | URIC ACID [2]: 1.78 mg/dL | ABSOLUTE BASOPHIL [3]: 0 CELLS/uL | ABSOLUTE EOSINOPHIL [3]: 196.33 CELLS/uL | ABSOLUTE LYMPHOCYTE [3]: 12931 CELLS/uL | ABSOLUTE MONOCYTE [3]: 96.33 CELLS/uL | ABSOLUTE SEGMENTED NEUTROPHIL [3]: 1409.67 CELLS/uL | BASOPHIL [3]: 0% | EOSINOPHIL [3]: 1.33% | ERYTHROCYTE COUNT [3]: 5.23 x10E6/uL | HEMATOCRIT [3]: 33.33% | HEMOGLOBIN [3]: 12.6 G/DL | LEUKOCYTE COUNT [3]: 14.63 x10E3/uL | LYMPHOCYTE [3]: 88.33% | MEAN CORPUSCULAR HEMOGLOBIN [3]: 24.13 pg | MEAN CORPUSCULAR HEMOGLOBIN CONCENTRATION [3]: 37.8 G/DL | MEAN CORPUSCULAR VOLUME [3]: 63.8 fL | MONOCYTE [3]: 0.67% | NEUTROPHIL [3]: 9.67% | NUCLEATED RED BLOOD CELLS [3]: 0 /100WBC | PLATELET COUNT [3]: 1378.33 x10E3/uL | ALANINE AMINOTRANSFERASE [3]: 57.67 u/L | ALBUMIN [3]: 4.13 G/DL | ALKALINE PHOSPHATASE [3]: 643.67 u/L | ASPARTATE AMINOTRANSFERASE [3]: 69.33 u/L | BLOOD UREA NITROGEN [3]: 15.33 mg/dL | CARBON DIOXIDE [3]: 26.33 mmol/L | CHLORIDE [3]: 104.67 MEQ/L | CHOLESTEROL [3]: 80 mg/dL | CREATINE PHOSPHOKINASE [3]: 192.67 u/L | CREATININE [3]: 0.19 mg/dL | GLUCOSE [3]: 177 mg/dL | LACTATE DEHYDROGENASE [3]: 86.33 u/L | LIPASE [3]: 8.33 u/L | PHOSPHORUS [3]: 12.27 mg/dL | POTASSIUM [3]: 6.12 MEQ/L | SODIUM [3]: 145.67 MEQ/L | TOTAL BILIRUBIN [3]: 0.27 mg/dL | TOTAL PROTEIN [3]: 5.8 G/DL | URIC ACID [3]: 1.97 mg/dL | ABSOLUTE BASOPHIL [4]: 0 CELLS/uL | ABSOLUTE EOSINOPHIL [4]: 176 CELLS/uL | ABSOLUTE LYMPHOCYTE [4]: 13256.67 CELLS/uL | ABSOLUTE MONOCYTE [4]: 0 CELLS/uL | ABSOLUTE SEGMENTED NEUTROPHIL [4]: 1734 CELLS/uL | BASOPHIL [4]: 0% | EOSINOPHIL [4]: 1% | ERYTHROCYTE COUNT [4]: 5.42 x10E6/uL | HEMATOCRIT [4]: 34.13% | HEMOGLOBIN [4]: 13.03 G/DL | LEUKOCYTE COUNT [4]: 15.17 x10E3/uL | LYMPHOCYTE [4]: 87.33% | MEAN CORPUSCULAR HEMOGLOBIN [4]: 24.13 pg | MEAN CORPUSCULAR HEMOGLOBIN CONCENTRATION [4]: 38.23 G/DL | MEAN CORPUSCULAR VOLUME [4]: 63.13 fL | MONOCYTE [4]: 0% | NEUTROPHIL [4]: 11.67% | NUCLEATED RED BLOOD CELLS [4]: 0 /100WBC | PLATELET COUNT [4]: 1262.67 x10E3/uL | ALANINE AMINOTRANSFERASE [4]: 42.33 u/L | ALBUMIN [4]: 3.97 G/DL | ALKALINE PHOSPHATASE [4]: 573.67 u/L | ASPARTATE AMINOTRANSFERASE [4]: 58.67 u/L | BLOOD UREA NITROGEN [4]: 16.67 mg/dL | CARBON DIOXIDE [4]: 29 mmol/L | CHLORIDE [4]: 99 MEQ/L | CHOLESTEROL [4]: 78 mg/dL | CREATINE PHOSPHOKINASE [4]: 220 u/L | CREATININE [4]: 0.2 mg/dL | GLUCOSE [4]: 155.33 mg/dL | LACTATE DEHYDROGENASE [4]: 172.33 u/L | LIPASE [4]: 8.67 u/L | PHOSPHORUS [4]: 11.03 mg/dL | POTASSIUM [4]: 6.01 MEQ/L | SODIUM [4]: 142.9 MEQ/L | TOTAL BILIRUBIN [4]: 0.17 mg/dL | TOTAL PROTEIN [4]: 5.67 G/DL | URIC ACID [4]: 1.5 mg/dL
